Activity calls are given as the source filed them. The rule behind the calls is not given here.
Tested on: CCRIS mutagenicity, Ames/micronucleus/aberration tests
Assay: CCRIS mutagenicity studies
[1] = Test System: AMES SALMONELLA TYPHIMURIUM, Strain/Indicator: TA98, Metabolic Activation: NONE, Method: STANDARD PLATE
[2] = Test System: AMES SALMONELLA TYPHIMURIUM, Strain/Indicator: TA98, Metabolic Activation: RAT, LIVER, S-9, AROCLOR 1254, Method: STANDARD PLATE
[3] = Test System: AMES SALMONELLA TYPHIMURIUM, Strain/Indicator: TA100, Metabolic Activation: NONE, Method: PREINCUBATION
[4] = Test System: AMES SALMONELLA TYPHIMURIUM, Strain/Indicator: TA100, Metabolic Activation: NONE, Method: STANDARD PLATE
[5] = Test System: AMES SALMONELLA TYPHIMURIUM, Strain/Indicator: TA100, Metabolic Activation: RAT, LIVER, S-9, AROCLOR 1254, Method: STANDARD PLATE
[6] = Test System: AMES SALMONELLA TYPHIMURIUM, Strain/Indicator: TA97, Metabolic Activation: NONE, Method: STANDARD PLATE

Question: Which mutagenic call (Test System: AMES SALMONELLA TYPHIMURIUM, Strain/Indicator: TA98, Metabolic Activation: HAMSTER, LIVER, S-9, AROCLOR 1254, Method: STANDARD PLATE) does the source give for `O=C(/C=C/c1ccc([N+](=O)[O-])cc1)c1ccccc1` here?
Answer: active; positive

Question: What about the mutagenic call [1] of the same compound?
Answer: inactive; negative

Question: What about the mutagenic call [2] of the same compound?
Answer: active; positive

Question: And the mutagenic call (Test System: AMES SALMONELLA TYPHIMURIUM, Strain/Indicator: TA100(1,8-DNP6), Metabolic Activation: NONE, Method: PREINCUBATION)?
Answer: inactive; negative

Question: What about the mutagenic call (Test System: AMES SALMONELLA TYPHIMURIUM, Strain/Indicator: TA100(1,8-DNP6), Metabolic Activation: RAT, LIVER, S-9, AROCLOR 1254, Method: PREINCUBATION) of the same compound?
Answer: inactive; negative

Question: And the mutagenic call (Test System: AMES SALMONELLA TYPHIMURIUM, Strain/Indicator: TA100(NR), Metabolic Activation: NONE, Method: PREINCUBATION)?
Answer: inactive; negative

Question: What about the mutagenic call (Test System: AMES SALMONELLA TYPHIMURIUM, Strain/Indicator: TA100(NR), Metabolic Activation: RAT, LIVER, S-9, AROCLOR 1254, Method: PREINCUBATION) of the same compound?
Answer: inactive; negative

Question: What about the mutagenic call (Test System: AMES SALMONELLA TYPHIMURIUM, Strain/Indicator: TA100, Metabolic Activation: HAMSTER, LIVER, S-9, AROCLOR 1254, Method: STANDARD PLATE) of the same compound?
Answer: active; positive

Question: And the mutagenic call [3]?
Answer: inactive; negative

Question: What about the mutagenic call [4] of the same compound?
Answer: inactive; negative

Question: And the mutagenic call [5]?
Answer: active; positive

Question: And the mutagenic call (Test System: AMES SALMONELLA TYPHIMURIUM, Strain/Indicator: TA100, Metabolic Activation: RAT, LIVER, S-9, AROCLOR, Method: PREINCUBATION)?
Answer: active; positive

Question: And the mutagenic call (Test System: MOUSE LYMPHOMA, Strain/Indicator: L5178Y (TK+/TK-), Metabolic Activation: NONE, Method: SUSPENSION/PLATE)?
Answer: inactive; negative. reevaluation of results: negative

Question: What about the mutagenic call (Test System: MOUSE LYMPHOMA, Strain/Indicator: L5178Y (TK+/TK-), Metabolic Activation: RAT, LIVER, S-9, AROCLOR 1254, Method: SUSPENSION/PLATE) of the same compound?
Answer: inactive; negative. reevaluation of results: negative

Question: Which mutagenic call [1] does the source give for `CCN(CCC#N)c1ccc(N=Nc2c(Cl)cc([N+](=O)[O-])cc2Cl)cc1` here?
Answer: active; positive

Question: What about the mutagenic call [2] of the same compound?
Answer: active; positive

Question: And the mutagenic call (Test System: AMES SALMONELLA TYPHIMURIUM, Strain/Indicator: YG1041, Metabolic Activation: NONE, Method: STANDARD PLATE)?
Answer: active; positive

Question: What about the mutagenic call (Test System: AMES SALMONELLA TYPHIMURIUM, Strain/Indicator: YG1041, Metabolic Activation: RAT, LIVER, S-9, AROCLOR 1254, Method: STANDARD PLATE) of the same compound?
Answer: active; positive

Question: `Cc1cc(Cl)ccc1O` was tested. Which mutagenic call (Test System: AMES SALMONELLA TYPHIMURIUM, Strain/Indicator: TA97, Metabolic Activation: HAMSTER, LIVER, S-9, AROCLOR 1254 (10%), Method: PREINCUBATION) did it give?
Answer: inactive; negative

Question: And the mutagenic call (Test System: AMES SALMONELLA TYPHIMURIUM, Strain/Indicator: TA97, Metabolic Activation: HAMSTER, LIVER, S-9, AROCLOR 1254 (30%), Method: PREINCUBATION)?
Answer: inactive; negative

Question: And the mutagenic call (Test System: AMES SALMONELLA TYPHIMURIUM, Strain/Indicator: TA97, Metabolic Activation: NONE, Method: PREINCUBATION)?
Answer: inactive; negative

Question: What about the mutagenic call [6] of the same compound?
Answer: active; positive

Question: What about the mutagenic call (Test System: AMES SALMONELLA TYPHIMURIUM, Strain/Indicator: TA97, Metabolic Activation: RAT, LIVER, S-9, AROCLOR 1254 (10%), Method: PREINCUBATION) of the same compound?
Answer: inactive; negative

Question: And the mutagenic call (Test System: AMES SALMONELLA TYPHIMURIUM, Strain/Indicator: TA97, Metabolic Activation: RAT, LIVER, S-9, AROCLOR 1254 (30%), Method: PREINCUBATION)?
Answer: inactive; negative

Question: And the mutagenic call (Test System: AMES SALMONELLA TYPHIMURIUM, Strain/Indicator: TA97, Metabolic Activation: RAT, LIVER, S-9, AROCLOR 1254, Method: STANDARD PLATE)?
Answer: active; positive

Question: And the mutagenic call (Test System: AMES SALMONELLA TYPHIMURIUM, Strain/Indicator: TA98, Metabolic Activation: HAMSTER, LIVER, S-9, AROCLOR 1254 (10%), Method: PREINCUBATION)?
Answer: inactive; negative

Question: What about the mutagenic call (Test System: AMES SALMONELLA TYPHIMURIUM, Strain/Indicator: TA98, Metabolic Activation: HAMSTER, LIVER, S-9, AROCLOR 1254 (30%), Method: PREINCUBATION) of the same compound?
Answer: inactive; negative

Question: And the mutagenic call (Test System: AMES SALMONELLA TYPHIMURIUM, Strain/Indicator: TA98, Metabolic Activation: NONE, Method: PREINCUBATION)?
Answer: inactive; negative

Question: What about the mutagenic call [1] of the same compound?
Answer: inactive; negative

Question: And the mutagenic call (Test System: AMES SALMONELLA TYPHIMURIUM, Strain/Indicator: TA98, Metabolic Activation: RAT, LIVER, S-9, AROCLOR 1254 (10%), Method: PREINCUBATION)?
Answer: inactive; negative

Question: And the mutagenic call (Test System: AMES SALMONELLA TYPHIMURIUM, Strain/Indicator: TA98, Metabolic Activation: RAT, LIVER, S-9, AROCLOR 1254 (30%), Method: PREINCUBATION)?
Answer: inactive; negative

Question: And the mutagenic call [2]?
Answer: active; positive

Question: And the mutagenic call (Test System: AMES SALMONELLA TYPHIMURIUM, Strain/Indicator: TA100, Metabolic Activation: HAMSTER, LIVER, S-9, AROCLOR 1254 (10%), Method: PREINCUBATION)?
Answer: inactive; negative

Question: And the mutagenic call (Test System: AMES SALMONELLA TYPHIMURIUM, Strain/Indicator: TA100, Metabolic Activation: HAMSTER, LIVER, S-9, AROCLOR 1254 (30%), Method: PREINCUBATION)?
Answer: inactive; negative

Question: What about the mutagenic call [3] of the same compound?
Answer: inactive; negative

Question: And the mutagenic call [4]?
Answer: inactive; negative

Question: What about the mutagenic call (Test System: AMES SALMONELLA TYPHIMURIUM, Strain/Indicator: TA100, Metabolic Activation: RAT, LIVER, S-9, AROCLOR 1254 (10%), Method: PREINCUBATION) of the same compound?
Answer: inactive; negative

Question: And the mutagenic call (Test System: AMES SALMONELLA TYPHIMURIUM, Strain/Indicator: TA100, Metabolic Activation: RAT, LIVER, S-9, AROCLOR 1254 (30%), Method: PREINCUBATION)?
Answer: inactive; negative

Question: What about the mutagenic call [5] of the same compound?
Answer: active; positive

Question: What about the mutagenic call (Test System: AMES SALMONELLA TYPHIMURIUM, Strain/Indicator: TA104, Metabolic Activation: NONE, Method: STANDARD PLATE) of the same compound?
Answer: inactive; negative

Question: And the mutagenic call (Test System: AMES SALMONELLA TYPHIMURIUM, Strain/Indicator: TA104, Metabolic Activation: RAT, LIVER, S-9, AROCLOR 1254, Method: STANDARD PLATE)?
Answer: inactive; negative

Question: What about the mutagenic call (Test System: AMES SALMONELLA TYPHIMURIUM, Strain/Indicator: TA1535, Metabolic Activation: HAMSTER, LIVER, S-9, AROCLOR 1254 (10%), Method: PREINCUBATION) of the same compound?
Answer: inactive; negative

Question: What about the mutagenic call (Test System: AMES SALMONELLA TYPHIMURIUM, Strain/Indicator: TA1535, Metabolic Activation: HAMSTER, LIVER, S-9, AROCLOR 1254 (30%), Method: PREINCUBATION) of the same compound?
Answer: inactive; negative

Question: And the mutagenic call (Test System: AMES SALMONELLA TYPHIMURIUM, Strain/Indicator: TA1535, Metabolic Activation: NONE, Method: PREINCUBATION)?
Answer: inactive; negative

Question: What about the mutagenic call (Test System: AMES SALMONELLA TYPHIMURIUM, Strain/Indicator: TA1535, Metabolic Activation: RAT, LIVER, S-9, AROCLOR 1254 (10%), Method: PREINCUBATION) of the same compound?
Answer: inactive; negative

Question: And the mutagenic call (Test System: AMES SALMONELLA TYPHIMURIUM, Strain/Indicator: TA1535, Metabolic Activation: RAT, LIVER, S-9, AROCLOR 1254 (30%), Method: PREINCUBATION)?
Answer: inactive; negative

Question: What about the mutagenic call (Test System: AMES SALMONELLA TYPHIMURIUM, Strain/Indicator: TA1537, Metabolic Activation: HAMSTER, LIVER, S-9, AROCLOR 1254 (30%), Method: PREINCUBATION) of the same compound?
Answer: inactive; negative

Question: And the mutagenic call (Test System: AMES SALMONELLA TYPHIMURIUM, Strain/Indicator: TA1537, Metabolic Activation: NONE, Method: PREINCUBATION)?
Answer: inactive; negative

Question: What about the mutagenic call (Test System: AMES SALMONELLA TYPHIMURIUM, Strain/Indicator: TA1537, Metabolic Activation: RAT, LIVER, S-9, AROCLOR 1254 (30%), Method: PREINCUBATION) of the same compound?
Answer: inactive; negative

Question: `CC(C)(C)NC(=O)[C@H]1CC[C@H]2[C@@H]3CC=C4C=C(C(=O)O)CC[C@]4(C)[C@H]3CC[C@]12C` was tested. Which mutagenic call [6] did it give?
Answer: inactive; negative

Question: And the mutagenic call (Test System: AMES SALMONELLA TYPHIMURIUM, Strain/Indicator: TA97, Metabolic Activation: RAT LIVER S-9, AROCLOR 1254, Method: PREINCUBATION)?
Answer: inactive; negative

Question: What about the mutagenic call [1] of the same compound?
Answer: inactive; negative

Question: What about the mutagenic call (Test System: AMES SALMONELLA TYPHIMURIUM, Strain/Indicator: TA98, Metabolic Activation: RAT LIVER S-9, AROCLOR 1254, Method: PREINCUBATION) of the same compound?
Answer: inactive; negative

Question: What about the mutagenic call [4] of the same compound?
Answer: inactive; negative

Question: And the mutagenic call (Test System: AMES SALMONELLA TYPHIMURIUM, Strain/Indicator: TA100, Metabolic Activation: RAT LIVER S-9, AROCLOR 1254, Method: PREINCUBATION)?
Answer: inactive; negative

Question: What about the mutagenic call (Test System: AMES SALMONELLA TYPHIMURIUM, Strain/Indicator: TA102, Metabolic Activation: NONE, Method: STANDARD PLATE) of the same compound?
Answer: inactive; negative

Question: And the mutagenic call (Test System: AMES SALMONELLA TYPHIMURIUM, Strain/Indicator: TA102, Metabolic Activation: RAT LIVER S-9, AROCLOR 1254, Method: PREINCUBATION)?
Answer: inactive; negative

Source: PubChem BioAssay AID1259407 (Chemical Carcinogenesis Research Information System (CCRIS), 2018)
